Columns and labels:
[1] = system: Nur77 expression in the seminal vesicles; settings: orchiectomized (ORX) rats, FIG. 6, to various extents
[2] = system: Nur77 expression in 22RV1 cells; experiment: Expression of Nur77 in prostrate cancer cells (FIG. 5); assay type: cell-based; settings: prostrate cancer cells (22RV1 cells), to various extents

## C[C@]12CCC(=O)C[C@@H]1CC[C@@H]1[C@@H]2CC[C@]2(C)[C@@H](O)CC[C@@H]12 [DHT, dihydrotestosterone]
[1]
  expression of Nur77: can be modulated
[2]
  expression of Nur77: can be controlled

— patent publication US7521207B2, “Rhesus monkey Nur77” (Merck & Co., Inc., priority 2005, dated 2009)
